Results on two molecules are retold here after PMC5913971, “A Novel Piperazine-Based Drug Lead for Cryptosporidiosis from the Medicines for Malaria Venture Open-Access Malaria Box” (Antimicrobial Agents and Chemotherapy, 2018).

Assay [1] relates to C. parvum Iowa isolate. Kind of assay: NOD SCID gamma (NSG) mouse model of chronic cryptosporidiosis, fecal qPCR. Particulars: for short-term efficacy on oocyst shedding in NSG mice: Fig. 2B, dose not given. The format is in vivo, NOD SCID gamma mice. As to the method: All NOD SCID gamma mouse studies were performed in compliance with animal care guidelines and were approved by the University of Vermont Institutional Animal Care and Use Committee. NOD SCID gamma mice with normal flora (NOD.Cg-Prkdc^scid Il2rg^tm1Wjl/SzJ) ([38]) were purchased from The Jackson Laboratory (Bar Harbor, ME, USA) and were housed for at least a week for acclimatization. At the age of 4 to 5 weeks, mice were infected with 10^5 C. parvum Iowa isolate oocysts. Fecal oocyst shedding is detected 6 days after infection using a quantitative PCR (qPCR assay), so treatment was started on day 7 after infection. Mice (4 per experimental group) were treated either orally (p.o.) with MMV665917 at 30 or 60 mg/kg BID, intraperitoneally (i.p.) with MMV665917 at 60 mg/kg BID, or p.o. with 1,000 mg/kg paromomycin BID. MMV665917 was suspended in DMSO, sonicated three times, for 30 s each time, to obtain a fine suspension, aliquoted, and stored at −80°C for <10 days. On the day of treatment, aliquots of MMV665917 diluted in DMSO were thawed, mixed well using a vortexer, diluted with 1% HPMC, sonicated as before (three times for 30 s each time), mixed well, and given to mice either p.o. or by i.p. injection. A final concentration of 5% DMSO was used in 100 μl of 1% HPMC per dose. For the additional Malaria Box compounds and compound variants tested, the doses were prepared in the same way, and the specific dosages tested are given in Table S3 in the supplemental material. Mice were treated for either 4 or 7 days, allowed to recover for a week, and then sacrificed. Oocyst shedding in feces was monitored throughout by qPCR, including time points while on treatment and while monitoring for relapsed infection following completion of treatment in Fig. 2A.

Assay [2] deals with C. parvum. Kind of assay: Parasite persistence (time-kill) assay in HCT-8 cells. Conditions: for parasite persistence: highest nontoxic concentrations, added 24 h after infection. The assay is classed as cell-based, Cryptosporidium parvum. The method, then:
Excysted C. parvum oocysts were added to >90% confluent HCT-8 cells in 384-well plates. […] At ∼24 h (i.e., the time of compound addition) and at various time intervals thereafter, parasites were washed, fixed, permeabilized, stained, and imaged as for the C. parvum growth assay. For the extended-compound-exposure experiments, the medium and compound were replaced every 3 days. A separate 384-well plate was used for each time interval. Parasite numbers were normalized to host cell nucleus numbers and are expressed as the percentage of parasites per host cell nucleus. In order to fit parasite decay curves, the effect of drugs was isolated from expected changes in parasite numbers over time by expressing the number of parasites as the percentage of the number of parasites with the control, dimethyl sulfoxide (DMSO), for each time point. Exponential decay curves were fit using GraphPad Prism software, version 6.01, and curve validity was assessed using the replicates test.

For assay [3], the system named is C. parvum Iowa isolate. Kind of assay: IFN-γ knockout mouse model of acute cryptosporidiosis. The format is in vivo, C57BL/6 IFN-γ−/− mice. Conditions: dose not given. The method, then: All interferon gamma (IFN-γ) knockout mouse studies were performed in compliance with animal care guidelines and were approved by the Explora BioLabs (San Diego, CA) Institutional Animal Care and Use Committee. Four-week-old female C57BL/6 IFN-γ^−/− mice with normal flora were purchased from The Jackson Laboratory and were acclimated for 3 days prior to infection by oral gavage with 10^6 C. parvum Iowa isolate oocysts (Sterling Parasitology Laboratory, University of Arizona) suspended in sterile distilled water. At various times postinfection, mice were treated with the compound vehicle alone, clofazimine (used as a positive control), or MMV665917. As described previously, fecal parasite shedding was quantified at various times postinfection by isolating oocysts using a sucrose gradient centrifugation method ([39]), followed by staining for immunofluorescence microscopy using a fluorescein isothiocyanate-conjugated mouse anti-Cryptosporidium antibody (0.25 μg per sample) and analysis with a Guava easyCyte flow cytometer and CytoSoft data acquisition and analysis software (version 5.3; Guava Technologies, Inc.). Oocyst counts per milliliter of sample were exported to Excel (Microsoft Corp.) and were normalized to counts per milligram of feces. Final data analysis and graphing were carried out using GraphPad Prism software (version 6.01).

Turning to `NC[C@@H]1O[C@H](O[C@H]2[C@@H](O)[C@H](O[C@@H]3[C@@H](O)[C@H](N)C[C@H](N)[C@H]3O[C@H]3O[C@H](CO)[C@@H](O)[C@H](O)[C@H]3N)O[C@@H]2CO)[C@H](N)[C@@H](O)[C@@H]1O` [paromomycin], in assay [1], the “short-term efficacy on oocyst shedding in NSG mice” value is “ineffective”. For the same molecule, the “relapse after cessation of treatment” value in assay [1] (paromomycin 1,000 mg/kg p.o. BID, 7 days) is “relapsed promptly”. Moreover, in assay [2], the “parasiticidal or parasitistatic for C. parvum” value is “parasitistatic” and the parasite persistence result is given as “parasites persist”. Besides, the “percentage of host cells infected, extended treatment” value in assay [2] (day 13 of treatment, 12 × EC90, medium and drug replaced every 3 days) was “closely mirrored the pattern for the vehicle control”. Besides, the “efficacy in IFN-γ KO mouse model of acute infection” value in assay [3] is recorded as “good efficacy”.

For the molecule `CC(C)/N=c1\cc2n(-c3ccc(Cl)cc3)c3ccccc3nc-2cc1Nc1ccc(Cl)cc1` [clofazimine], the “short-term efficacy on oocyst shedding in NSG mice” value in assay [1] is “completely lacked efficacy”. For the same molecule, in assay [2], the “parasiticidal or parasitistatic for C. parvum” value is reported as “parasitistatic” and the parasite persistence entry is reported as “parasites persist”. In addition, in assay [3], the “efficacy in IFN-γ KO mouse model of acute infection” value is reported as “confirmed”.
